The target in experiment [1] is HCV NS3/4A protease genotype 1b (Hepatitis C virus genotype 1b, UniProt P26663). The experiment can be described thus: HCV NS3/4A protease time-resolved fluorescence (TRF) assay, Ki against genotype 1b. The note with it: IC50 [gt-1b] (nM), NS3/4A genotype 1b, enzyme 0.2 nM. It counts as biochemical. In outline:
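NS3/4A enzyme was preincubated 30 min with inhibitor in 50 mM HEPES pH 7.5, 150 mM NaCl, 15% glycerol, 0.15% Triton X-100, 10 mM DTT, 0.1% PEG 8000; 25 nM europium TRF peptide substrate added, 2.5 h at room temperature. Enzyme: 0.2 nM (1b), 0.4 nM (A156T), 0.025 nM (3a). Ki from IC50 via Cheng-Prusoff.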

The subject of the next experiment is HCV genotype 1b replicon. The experiment in a line: HCV replicon assay, genotype 1b replicon EC50. It counts as cell-based, Hepatitis C virus. The note with it: Hepatitis C virus, genotype 1b replicon, read-out: EC50 [gt-1b]. In short, it runs like this:
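Assay format: compound titration on stable replicon cells, no G418 during treatment, 24 to 48 hours. Lysates were assayed for replicon RNA (hybridization/protection or TaqMan) or luciferase; EC50 fitted to four parameters against DMSO.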

Where two headings read alike, the source gives them in different places.

The compound `COc1ccc2nc(C(F)(F)F)c3c(c2c1)[C@](C)(F)C[C@]1(C[C@H]2C(=O)N[C@]4(C(=O)NS(=O)(=O)C5(C)CC5)C[C@H]4/C=C\CCCCC[C@H](NC(=O)OC(C)(C)C)C(=O)N2C1)O3` [Example 63, tert-Butyl ((1′R,2S,6S,13aS,14aR,16aS,Z)-1′-fluoro-9′-methoxy-1-methyl-14a-(((1-methylcyclopropyl)sulfonyl)carbamoyl)-5,16-dioxo-5′-(trifluoromethyl)-1′,2′,3,5,6,7,8,9,1011,13a,14,14a,15,16,16a-hexadecahydro-1H-spiro[cyclopropa[e]pyrrolo[1,2-a][1,4]diazacyclopentadecine-2,3′-pyrano[2,3-c]quinolin]-6-yl)carbamate] showed an IC50 in experiment [1] of 0.007 nM. Further, the half-maximal effective concentration (EC50) with HCV genotype 1b replicon came out at 0.245 nM.
The corresponding values for `COc1ccc2nc(C(F)(F)F)c3c(c2c1)[C@@H](N1CCOCC1)C[C@]1(C[C@H]2C(=O)N[C@]4(C(=O)NS(=O)(=O)C5(C)CC5)C[C@H]4/C=C\CCCCC[C@H](NC(=O)OC(C)(C)C)C(=O)N2C1)O3` [Example 65, tert-Butyl((1′S,2R,6S,13aS,14aR,16aS,Z)-9′-methoxy-14a-(((1-methylcyclopropyl)sulfonyl)carbamoyl)-1′-morpholino-5,16-dioxo-5′-(trifluoromethyl) -1′,2′,3,5,6,7,8,9,10,11,13a,14,14a,15,16,16a-hexadecahydro-1H-spiro[cyclopropa[e]pyrrolo[1,2-a][1,4]diazacyclopentadecine-2,3′-pyrano[2,3-c]quinolin]-6-yl)carbamate] are 0.011 nM and 0.148 nM.
The corresponding values for `COc1ccc2nc(C(F)(F)F)c3c(c2c1)[C@H](N1CCOCC1)C[C@]1(C[C@H]2C(=O)N[C@]4(C(=O)NS(=O)(=O)C5(C)CC5)C[C@H]4/C=C\CCCCC[C@H](NC(=O)OC(C)(C)C)C(=O)N2C1)O3` [Example 66, tert-Butyl((1′R,2R,6S,13aS,14aR,16aS,Z)-9′-methoxy-14a-(((1-methylcyclopropyl)sulfonyl)carbamoyl)-1′-morpholino-5,16-dioxo-5′-(trifluoromethyl) -1′,2′,3,5,6,7,8,9,10,11,13a,14,14a,15,16,16a-hexadecahydro-1H-spiro[cyclopropa[e]pyrrolo[1,2-α][1,4]diazacyclopentadecine-2,3′-pyrano[2,3-c]quinolin]-6-yl)carbamate] are 0.011 nM and 0.148 nM.
Consider `CC(C)(C)OC(=O)N[C@H]1CCCCC/C=C\C2CC2(C(=O)NS(=O)(=O)C2(C)CC2)NC(=O)C2C[C@]3(CCc4c(c(C5CC5)nc5ccc(F)cc45)O3)CN2C1=O` (stereo partly drawn) [Example 68, tert-butyl [(2R,6S,12Z)-5′-cyclopropyl-9′-fluoro-14a-{[(1-methylcyclopropyl)sulfonyl]carbamoyl}-5,16-dioxo-1,1′,2′,5,6,7,8,9,10,11,13a,14,14a,15,16,16a-hexadecahydrospiro[cyclopropa[e]pyrrolo[1,2-a][1,4]diazacyclopentadecine-2,3′-pyrano[2,3-c]quinolin]-6-yl]carbamate], for which, in experiment [1], the IC50 is 0.016 nM. Moreover, the EC50 in the experiment on HCV genotype 1b replicon worked out at 0.98 nM.
For `CC(C)(C)OC(=O)N[C@H]1CCCCC/C=C\C2CC2(C(=O)NS(=O)(=O)C2(C)CC2)NC(=O)C2C[C@]3(CCc4c(c(C5CC5)nc5c(F)cccc45)O3)CN2C1=O` (stereo partly drawn) [Example 69, tert-butyl [(2R,6S,12Z)-5′-cyclopropyl-7′-fluoro-14a-{[(1-methylcyclopropyl)sulfonyl]carbamoyl}-5,16-dioxo-1,1′,2′,5,6,7,8,9,10,11,13a,14,14a,15,16,16a-hexadecahydrospiro[cyclopropa[e]pyrrolo[1,2-a][1,4]diazacyclopentadecine-2,3′-pyrano[2,3-c]quinolin]-6-yl]carbamate], the IC50 in experiment [1] (K+ salt) turned out to be 0.012 nM. Further, the 50% effective concentration (EC50) in the experiment with HCV genotype 1b replicon (K+ salt) is 0.82 nM.
The corresponding values for `COc1ccc2c3c(c(C4CC4)nc2c1)O[C@]1(CC3)CC2C(=O)NC3(C(=O)NS(=O)(=O)C4(C)CC4)CC3/C=C\CCCCC[C@H](NC(=O)OC(C)(C)C)C(=O)N2C1` (stereo partly drawn) [Example 70, tert-butyl [(2R,6S,12Z)-5′-cyclopropyl-8′-methoxy-14a-{[(1-methylcyclopropyl)sulfonyl]carbamoyl}-5,16-dioxo-1,1′,2′,5,6,7,8,9,10,11,13a,14,14a,15,16,16a-hexadecahydrospiro[cyclopropa[e]pyrrolo[1,2-a][1,4]diazacyclopentadecine-2,3′-pyrano[2,3-c]quinolin]-6-yl]carbamate] are 0.028 nM and 1.39 nM.
As for `Cc1nc2cc(F)ccc2c2c1O[C@]1(CC2)C[C@H]2C(=O)N[C@]3(C(=O)NS(=O)(=O)C4(C)CC4)C[C@H]3/C=C\CCCCC[C@H](NC(=O)OC(C)(C)C)C(=O)N2C1` [Example 71, tert-butyl [(2R,6S,12Z,13aS,14aR,16aS)-8′-fluoro-5′-methyl-14a-{[(1-methylcyclopropyl)sulfonyl]carbamoyl}-5,16-dioxo-1,1′,2′,5,6,7,8,9,10,11,13a,14,14a,15,16,16a-hexadecahydrospiro[cyclopropa[e]pyrrolo[1,2-a][1,4]diazacyclopentadecine-2,3′-pyrano[2,3-c]quinolin]-6-yl]carbamate], the IC50 in experiment [1] (K+ salt) was found to be 0.023 nM. Also, the concentration for a half-maximal effect (EC50) with HCV genotype 1b replicon (K+ salt) was found to be 0.628 nM.
As for `CC(C)(C)OC(=O)N[C@H]1CCCCC/C=C\[C@@H]2C[C@@]2(C(=O)NS(=O)(=O)C2(C)CC2)NC(=O)[C@@H]2C[C@@]3(CCc4c(ccc5ccccc45)O3)CN2C1=O` [Example 72, tert-butyl [(3S,6′S,12′Z,13a′S,14a′R,16a′S)-14a′-{[(1-methylcyclopropyl)sulfonyl]carbamoyl}-5′,16′-dioxo-1,1′,2,5′,6′,7′,8′,9′,10′,11′,13a′,14′,14a′,15′,16′,16a′-hexadecahydrospiro[benzo[f]chromene-3,2′-cyclopropa[e]pyrrolo[1,2-a][1,4]diazacyclopentadecin]-6′-yl]carbamate], in experiment [1], the IC50 turned out to be 0.665 nM. Further, the EC50 with HCV genotype 1b replicon is 24.2 nM.
The corresponding values for `CC(C)(C)OC(=O)N[C@H]1CCCCC/C=C\[C@@H]2C[C@@]2(C(=O)NS(=O)(=O)C2(C)CC2)NC(=O)[C@@H]2C[C@]3(CCc4c(ccc5ccccc45)O3)CN2C1=O` [Example 73, tert-butyl [(3R,6′S,12′Z,13a′S,14a′R,16a′S)-14a′-{[(1-methylcyclopropyl)sulfonyl]carbamoyl}-5′,16′-dioxo-1,1′,2,5′,6′,7′,8′,9′,10′,11′,13a′,14′,14a′,15′,16′,16a′-hexadecahydrospiro[benzo[f]chromene-3,2′-cyclopropa[e]pyrrolo[1,2-a][1,4]diazacyclopentadecin]-6′-yl]carbamate] are 0.12 nM and 1.71 nM.
The corresponding values for `Cc1nc2ccccc2c2c1O[C@@]1(CC2)C[C@H]2C(=O)N[C@]3(C(=O)NS(=O)(=O)C4(C)CC4)C[C@H]3/C=C\CCCCC[C@H](NC(=O)OC(C)(C)C)C(=O)N2C1` [Example 75, tert-butyl [(2S,6S,12Z,13aS,14aR,16a5)-5′-methyl-14a-{[(1-methylcyclopropyl)sulfonyl]carbamoyl}-5,16-dioxo-1,1′,2′,5,6,7,8,9,10,11,13a,14,14a,15,16,16a-hexadecahydrospiro[cyclopropa[e]pyrrolo[1,2-a][1,4]diazacyclopentadecine-2,3′-pyrano[2,3-c]quinolin]-6-yl]carbamate] are 0.022 nM and 7.36 nM.
Compound `CC(C)NC(=O)N[C@H]1CCCCC/C=C\[C@@H]2C[C@@]2(C(=O)NS(=O)(=O)C2(C)CC2)NC(=O)[C@@H]2C[C@]3(CCc4c(c(-c5cccc(F)c5)nc5ccccc45)O3)CN2C1=O` [Example 85, (2R,6S,12Z,13aS,14aR,16aS)-5′-(3-fluorophenyl)-N-[(1-methylcyclopropyl)sulfonyl]-5,16-dioxo-6-[(propan-2-ylcarbamoyl)amino]-1,1′,2′,6,7,8,9,10,11,13a,14,15,16,16a-tetradecahydrospiro[cyclopropa[e]pyrrolo[1,2-a][1,4]diazacyclopentadecine-2,3′-pyrano[2,3-c]quinoline]-14a(5R)-carboxamide] yielded an IC50 in experiment [1] of 0.013 nM. For the same compound, the EC50 in the experiment with HCV genotype 1b replicon was 1.31 nM.
The corresponding values for `Cc1ccc2nc(C)c3c(c2c1)CC[C@]1(C[C@H]2C(=O)N[C@]4(C(=O)NS(=O)(=O)C5CC5)C[C@H]4/C=C\CCCCC[C@H](NC(=O)OC(C)(C)C)C(=O)N2C1)O3` [Example 87, tert-butyl {(2R,6S,12Z,13aS,14aR,16aS)-14a-[(cyclopropylsulfonyl)carbamoyl]-5′,9′-dimethyl-5,16-dioxo-1,1′,2′,5,6,7,8,9,10,11,13a,14,14a,15,16,16a-hexadecahydrospiro[cyclopropa[e]pyrrolo[1,2-a][1,4]diazacyclopentadecine-2,3′-pyrano[2,3-c]quinolin]-6-yl}carbamate] are 0.01 nM and 5.87 nM.
`COC(=O)N[C@H]1CCCCC/C=C\[C@@H]2C[C@@]2(C(=O)NS(=O)(=O)C2(C)CC2)NC(=O)[C@@H]2C[C@]3(CCc4c(c(-c5cccc(F)c5)nc5ccccc45)O3)CN2C1=O` [Example 88, methyl [(2R,6S,12Z,13aS,14aR,16aS)-5′-(3-fluorophenyl)-14a-{[(1-methylcyclopropyl)sulfonyl]carbamoyl}-5,16-dioxo-1,1′,2′,5,6,7,8,9,10,11,13a,14,14a,15,16,16a-hexadecahydrospiro[cyclopropa[e]pyrrolo[1,2-a][1,4]diazacyclopentadecine-2,3′-pyrano[2,3-c]quinolin]-6-yl]carbamate] showed an IC50 in experiment [1] of 0.202 nM. Further, the EC50 in the experiment with HCV genotype 1b replicon was found to be 0.582 nM.

The values are drawn from patent publication US8987195B2 (priority 2012, dated 2015).
